Results published in the NIST ThermoML archive (doi:10.1016/j.jct.2013.03.005).
Values joined by “and” are separate entries in the source; they are usually repeats but may differ in a detail not shown here. Identical values can stand only once. Numbers after ± are expanded uncertainties.

How the values were obtained:
[1] = for mass density: 298.15 K, 101.33 kPa, mass/volume ratio of a pellet; for Normal melting temperature: DTA
[2] = Molar enthalpy of transition or fusion; conditions: Crystal; DSC
[3] = molar enthalpy of vaporization or sublimation; conditions: 298.15 K; Crystal; Static calorimetry

OCC1c2ccccc2-c2ccccc21 [9-fluorenemethanol]
[1], Crystal
Conditions	Normal melting temperature [°C]	mass density [kg/m3]
–	103.92 ± 0.41	1084 ± 110

[1]
Conditions	vapor or sublimation pressure
337.18 K, Crystal, Calculated from knudsen effusion weight loss	9.2e-05 ± 2e-05 kPa and 9e-05 ± 2e-05 kPa
339.17 K, Crystal, Calculated from knudsen effusion weight loss	0.000119 ± 2e-05 kPa and 0.000117 ± 2e-05 kPa and 0.000115 ± 2e-05 kPa
341.1 K, Crystal, Calculated from knudsen effusion weight loss	0.00015 ± 2.1e-05 kPa and 0.000147 ± 2.1e-05 kPa
343.17 K, Crystal, Calculated from knudsen effusion weight loss	0.00019 ± 2.1e-05 kPa and 0.000187 ± 2.1e-05 kPa and 0.000197 ± 2.1e-05 kPa
345.21 K, Crystal, Calculated from knudsen effusion weight loss	0.000247 ± 2.2e-05 kPa and 0.000239 ± 2.2e-05 kPa and 0.000243 ± 2.2e-05 kPa
347.13 K, Crystal, Calculated from knudsen effusion weight loss	0.000306 ± 2.3e-05 kPa and 0.000303 ± 2.3e-05 kPa and 0.000302 ± 2.3e-05 kPa
349.16 K, Crystal, Calculated from knudsen effusion weight loss	0.00038 ± 2.4e-05 kPa and 0.000381 ± 2.4e-05 kPa and 0.00039 ± 2.4e-05 kPa
351.22 K, Crystal, Calculated from knudsen effusion weight loss	0.000493 ± 2.7e-05 kPa and 0.000476 ± 2.6e-05 kPa and 0.000488 ± 2.6e-05 kPa
353.14 K, Crystal, Calculated from knudsen effusion weight loss	0.000611 ± 2.9e-05 kPa and 0.000602 ± 2.9e-05 kPa and 0.000607 ± 2.9e-05 kPa
355.17 K, Crystal, Calculated from knudsen effusion weight loss	0.000748 ± 3.3e-05 kPa and 0.000739 ± 3.3e-05 kPa and 0.000772 ± 3.4e-05 kPa
357.16 K, Crystal, Calculated from knudsen effusion weight loss	0.00095 ± 3.9e-05 kPa and 0.000955 ± 3.9e-05 kPa and 0.000923 ± 3.8e-05 kPa
359.1 K, Crystal, Calculated from knudsen effusion weight loss	0.00118 ± 9.5e-05 kPa and 0.001184 ± 9.5e-05 kPa and 0.001169 ± 9.4e-05 kPa
362.69 K, Liquid, Closed cell (Static) method	0.00242 ± 0.00016 kPa
364.67 K, Liquid, Closed cell (Static) method	0.00285 ± 0.00017 kPa
366.66 K, Liquid, Closed cell (Static) method	0.00333 ± 0.00018 kPa
368.63 K, Liquid, Closed cell (Static) method	0.00391 ± 0.0002 kPa
370.62 K, Liquid, Closed cell (Static) method	0.00456 ± 0.00022 kPa
372.6 K, Liquid, Closed cell (Static) method	0.00529 ± 0.00024 kPa
374.57 K, Liquid, Closed cell (Static) method	0.00615 ± 0.00027 kPa
376.56 K, Liquid, Closed cell (Static) method	0.00711 ± 0.00031 kPa
378.53 K, Liquid, Closed cell (Static) method	0.00817 ± 0.00034 kPa
380.52 K, Liquid, Closed cell (Static) method	0.00947 ± 0.00039 kPa
382.5 K, Liquid, Closed cell (Static) method	0.01089 ± 0.00044 kPa
384.49 K, Liquid, Closed cell (Static) method	0.01253 ± 0.00051 kPa
386.47 K, Liquid, Closed cell (Static) method	0.0143 ± 0.00054 kPa
388.43 K, Liquid, Closed cell (Static) method	0.01639 ± 0.00057 kPa
390.43 K, Liquid, Closed cell (Static) method	0.0188 ± 0.00061 kPa
392.39 K, Liquid, Closed cell (Static) method	0.02137 ± 0.00065 kPa
394.37 K, Liquid, Closed cell (Static) method	0.02432 ± 0.00069 kPa
396.35 K, Liquid, Closed cell (Static) method	0.02764 ± 0.00074 kPa
398.32 K, Liquid, Closed cell (Static) method	0.03131 ± 0.0008 kPa
400.3 K, Liquid, Closed cell (Static) method	0.03556 ± 0.00086 kPa

Conditions	Molar enthalpy of transition or fusion [kcal/mol]
[2]	6.67 ± 0.148

O=C(O)C1c2ccccc2-c2ccccc21 [9H-fluorene-9-carboxylic acid]
[1], Crystal
Conditions	Normal melting temperature [°C]	mass density [kg/m3]
–	230.68 ± 0.56	1164 ± 120

[1], Crystal, Calculated from knudsen effusion weight loss
Conditions	vapor or sublimation pressure [kPa]
384.16 K	0.000139 ± 2.1e-05
386.13 K	0.000171 ± 2.1e-05
388.15 K	0.000211 ± 2.1e-05
392.14 K	0.000307 ± 2.3e-05
394.15 K	0.000378 ± 2.4e-05
396.15 K	0.000474 ± 2.6e-05
398.15 K	0.000558 ± 2.8e-05
400.13 K	0.000689 ± 3.2e-05
402.14 K	0.000811 ± 3.5e-05
404.15 K	0.000994 ± 4e-05
406.16 K	0.001182 ± 9.5e-05

Conditions	Molar enthalpy of transition or fusion [kcal/mol]	molar enthalpy [kcal/mol]
[2]	7.23 ± 0.174	–
[3]	–	30.4 ± 0.502
